Where two headings read alike, the source gives them in different places.
Columns and labels:
LXRα LBD (GST) = target: T1, LXRα LBD (GST) (Homo sapiens, UniProt Q13133); experiment: Time-resolved LXR FRET assay (LanthaScreen TR-FRET LXRα Coactivator Assay Kit); type: biochemical; conditions: for TR-FRET activity on LXRα, in words: statement made for both isoforms
T1 construct: 5 nM LXRα LBD (GST); 10 nM LXRβ LBD (GST); purchased ThermoFisher Scientific PV4655
T1 sequence (Q13133 209-447 limits assumed): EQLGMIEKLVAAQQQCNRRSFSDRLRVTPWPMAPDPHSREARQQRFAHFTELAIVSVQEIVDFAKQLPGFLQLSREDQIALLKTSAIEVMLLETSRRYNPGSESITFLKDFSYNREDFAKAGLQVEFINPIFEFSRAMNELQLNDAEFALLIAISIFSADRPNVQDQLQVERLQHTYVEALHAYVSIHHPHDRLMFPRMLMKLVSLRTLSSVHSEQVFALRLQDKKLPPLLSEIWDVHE
Experimental: (§1) The biochemical TR-FRET assays were performed using the LanthaScreen TR-FRET LXRα Coactivator Assay Kit, goat (ThermoFisher Scientific, PV4655), and the LanthaScreen TR-FRET LXRβ assay kit, goat (ThermoFisher Scientific, PV4658), according to the manufacturer’s instructions using the following concentrations: 5 nM LXRα LBD (GST); 10 nM LXRβ LBD (GST); 500 nM fluorescein-TRAP220/DRIP-2; 200 nM fluorescein-D22; 10 nM Tb anti-GST antibody. The TR-FRET signals were measured after 6 h using a TECAN SPARK multimode microplate reader with the following settings: first excitation wavelength: 360 nm (bandwidth 35 nm), first emission wavelength: 485 nm (bandwidth 20 nm); second excitation wavelength: 360 nm (bandwidth 35 nm), second emission wavelength: 535 nm (bandwidth 25 nm); integration time: 200 μs; lag time: 100 μs; settle time: 0 ms.

LXRβ LBD (GST) = target: T2, LXRβ LBD (GST) (Homo sapiens, UniProt P55055); experiment: Time-resolved LXR FRET assay (LanthaScreen TR-FRET LXRβ assay kit); type: biochemical; conditions: for TR-FRET activity on LXRβ, in words: statement made for both isoforms
T2 construct: 5 nM LXRα LBD (GST); 10 nM LXRβ LBD (GST); purchased ThermoFisher Scientific PV4658
T2 sequence (P55055 222-460 limits assumed): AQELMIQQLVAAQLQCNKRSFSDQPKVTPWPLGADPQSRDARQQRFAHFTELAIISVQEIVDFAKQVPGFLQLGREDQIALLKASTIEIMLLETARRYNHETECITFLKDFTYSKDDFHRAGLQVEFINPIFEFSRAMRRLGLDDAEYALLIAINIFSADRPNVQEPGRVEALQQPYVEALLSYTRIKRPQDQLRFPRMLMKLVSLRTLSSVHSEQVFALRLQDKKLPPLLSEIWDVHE
Experimental: as §1

[1] = 5 nM LXRα LBD (GST), read after 6 h, R^2 of fit given, read-out: TR-FRET activity (EC50) LXRα
[2] = 10 nM LXRβ LBD (GST), read after 6 h, R^2 of fit given, read-out: TR-FRET activity (EC50) LXRβ
[3] = supplement list of compounds, LXRα, unit inferred, read-out: FRET activity a
[4] = supplement list of compounds, (LXRβ), unit inferred, read-out: FRET activity b

Compound	EC50 (LXRα LBD (GST); [1])	EC50 (LXRβ LBD (GST); [2])	EC50 (LXRα LBD (GST); [3])	TR-FRET activity on LXRα, in words (LXRα LBD (GST))	TR-FRET activity on LXRβ, in words (LXRβ LBD (GST))	EC50 (LXRβ LBD (GST); [4])
O=C1C(Nc2ccc(N3CCNCC3)cc2)=C(c2ccccc2)C(=O)N1Cc1ccccc1 [Compound 43, 1-Benzyl-3-phenyl-4-((4-(piperazin-1-yl)phenyl)amino)-1H-pyrrole-2,5-dione]	1250 nM	283 nM				
COc1ccc(CN2C(=O)C(Nc3ccc(OC)cc3)=C(c3ccccc3)C2=O)cc1 [Compound 19, 1-(4-Methoxybenzyl)-3-((4-methoxyphenyl)amino)-4-phenyl-1H-pyrrole-2,5-dione]	518 nM	592 nM				
O=C1C(Nc2ccc(NC3CCNCC3)cc2)=C(c2ccccc2)C(=O)N1Cc1ccccc1 [Compound 47, 1-Benzyl-3-phenyl-4-((4-(piperidin-4-ylamino)phenyl)amino)-1H-pyrrole-2,5-dione]			618 nM			
COc1ccc(OC2=C(c3ccccc3)C(=O)N(Cc3ccccc3)C2=O)cc1 [Compound 26, 1-Benzyl-3-(4-methoxyphenoxy)-4-phenyl-1H-pyrrole-2,5-dione]	> 3000 nM	> 3000 nM		completely lost activity	completely lost activity	
CN1CCN(c2ccc(NC3=C(c4ccccc4)C(=O)N(Cc4ccccc4)C3=O)cc2)CC1 [Compound 44, 1-Benzyl-3-((4-(4-methylpiperazin-1-yl)phenyl)amino)-4-phenyl-1H-pyrrole-2,5-dione]			379 nM	no relevant activity	no relevant activity	657 nM
O=C1C(Nc2ccc3c(c2)OCO3)=C(c2ccccc2)C(=O)N1Cc1ccccc1 [Compound 38, 3-(Benzo[d][1,3]dioxol-5-ylamino)-1-benzyl-4-phenyl-1H-pyrrole-2,5-dione]	42 nM	45 nM				
O=C1C(Nc2ccc(CO)cc2)=C(c2ccccc2)C(=O)N1Cc1ccccc1 [Compound 34, 1-Benzyl-3-((4-(hydroxymethyl)phenyl)amino)-4-phenyl-1H-pyrrole-2,5-dione]	278 nM	133 nM				
O=C1C(Nc2ccc(N3CCOCC3)cc2)=C(c2ccccc2)C(=O)N1Cc1ccccc1 [Compound 41, 1-Benzyl-3-((4-morpholinophenyl)amino)-4-phenyl-1H-pyrrole-2,5-dione]	35 nM	106 nM				
O=C1CCN(c2ccc(NC3=C(c4ccccc4)C(=O)N(Cc4ccccc4)C3=O)cc2)CC1 [Compound 49, 1-Benzyl-3-((4-(4-oxopiperidin-1-yl)phenyl)amino)-4-phenyl-1H-pyrrole-2,5-dione]			103 nM			130 nM
COc1ccc(NC2=C(c3ccccc3)C(=O)N(CC3CC3)C2=O)cc1 [Compound 23, 1-(Cyclopropylmethyl)-3-((4-methoxyphenyl)amino)-4-phenyl-1H-pyrrole-2,5-dione]	342 nM	163 nM				
Cc1ccc(NC2=C(c3ccccc3)C(=O)N(Cc3ccccc3)C2=O)cc1 [Compound 32, 1-Benzyl-3-phenyl-4-(p-tolylamino)-1H-pyrrole-2,5-dione]	825 nM	617 nM				
CN1CCC(Nc2ccc(NC3=C(c4ccccc4)C(=O)N(Cc4ccccc4)C3=O)cc2)CC1 [Compound 48, 1-Benzyl-3-((4-((1-methylpiperidin-4-yl)amino)phenyl)amino)-4-phenyl-1H-pyrrole-2,5-dione]			786 nM			150 nM
COc1ccc(NC2=C(c3ccccc3)C(=O)N(Cc3ccc(C(F)(F)F)cc3)C2=O)cc1 [Compound 18, 3-((4-Methoxyphenyl)amino)-4-phenyl-1-(4-(trifluoromethyl)benzyl)-1H-pyrrole-2,5-dione]	> 3000 nM	> 3000 nM		completely lost potency	completely lost potency	
O=C1C(Nc2ccc(O)cc2)=C(c2ccccc2)C(=O)N1Cc1ccccc1 [Compound 33, 1-Benzyl-3-((4-hydroxyphenyl)amino)-4-phenyl-1H-pyrrole-2,5-dione]	390 nM	206 nM				
CN(C)c1ccc(NC2=C(c3ccccc3)C(=O)N(Cc3ccccc3)C2=O)cc1 [Compound 35, 1-Benzyl-3-((4-(dimethylamino)phenyl)amino)-4-phenyl-1H-pyrrole-2,5-dione]	71 nM	91 nM				
CC(C)(C)OC(=O)NC1CCN(c2ccc(NC3=C(c4ccccc4)C(=O)N(Cc4ccccc4)C3=O)cc2)CC1 [Compound 45, tert-Butyl-(1-(4-((1-benzyl-2,5-dioxo-4-phenyl-2,5-dihydro-1H-pyrrol-3-yl)amino)phenyl)piperidin-4-yl)carbamate]			> 3000 nM	abolished all activity	abolished all activity	> 3000 nM
COc1ccc(NC2=C(c3ccccc3)C(=O)N(Cc3ccncc3)C2=O)cc1 [Compound 21, 3-((4-Methoxyphenyl)amino)-4-phenyl-1-(pyridin-4-ylmethyl)-1H-pyrrole-2,5-dione]	390 nM	231 nM				
COc1ccc(NC2=C(c3ccccc3)C(=O)N(CC3CCCCC3)C2=O)cc1 [Compound 22, 1-(Cyclohexylmethyl)-3-((4-methoxyphenyl)amino)-4-phenyl-1H-pyrrole-2,5-dione]	1960 nM	2590 nM				
COc1ccc(NC2=C(c3ccccc3)C(=O)NC2=O)cc1 [Compound 25, 3-((4-Methoxyphenyl)amino)-4-phenyl-1H-pyrrole-2,5-dione]	> 3000 nM	> 3000 nM		no activity	no activity	
O=C(c1ccc(NC2=C(c3ccccc3)C(=O)N(Cc3ccccc3)C2=O)cc1)N1CCCCC1 [Compound 50, 1-Benzyl-3-phenyl-4-((4-(piperidine-1-carbonyl)phenyl)amino)-1H-pyrrole-2,5-dione]			74 nM			225 nM
COc1ccc(NC2=C(c3ccccc3)C(=O)N(Cc3ccc(F)cc3)C2=O)cc1 [Compound 16, 1-(4-Fluorobenzyl)-3-((4-methoxyphenyl)amino)-4-phenyl-1H-pyrrole-2,5-dione]	768 nM	594 nM				
O=C1C(Nc2ccc(Cl)cc2)=C(c2ccccc2)C(=O)N1Cc1ccccc1 [Compound 30, 1-Benzyl-3-((4-chlorophenyl)amino)-4-phenyl-1H-pyrrole-2,5-dione]	1150 nM	1180 nM				
COc1ccc(NC2=C(c3ccccc3)C(=O)N(Cc3ccc(C)cc3)C2=O)cc1 [Compound 17, 3-((4-Methoxyphenyl)amino)-1-(4-methylbenzyl)-4-phenyl-1H-pyrrole-2,5-dione]	579 nM	332 nM				
O=C1C(Nc2ccccc2)=C(c2ccccc2)C(=O)N1Cc1ccccc1 [Compound 29, 1-Benzyl-3-phenyl-4-(phenylamino)-1H-pyrrole-2,5-dione]	312 nM	265 nM				
O=C1C(Nc2ccc(N3CCSCC3)cc2)=C(c2ccccc2)C(=O)N1Cc1ccccc1 [Compound 42, 1-Benzyl-3-phenyl-4-((4-thiomorpholinophenyl)amino)-1H-pyrrole-2,5-dione]	50 nM	123 nM				
O=C1C(Nc2ccc(F)cc2)=C(c2ccccc2)C(=O)N1Cc1ccccc1 [Compound 31, 1-Benzyl-3-((4-fluorophenyl)amino)-4-phenyl-1H-pyrrole-2,5-dione]	335 nM	548 nM				
COc1ccc(CNC2=C(c3ccccc3)C(=O)N(Cc3ccccc3)C2=O)cc1 [Compound 28, 1-Benzyl-3-((4-methoxybenzyl)amino)-4-phenyl-1H-pyrrole-2,5-dione]	> 3000 nM	> 3000 nM		no activity	no activity	
COc1ccc(NC2=C(c3ccccc3)C(=O)N(Cc3ccc(C(C)(C)C)cc3)C2=O)cc1 [Compound 20, 1-(4-(tert-Butyl)benzyl)-3-((4-methoxyphenyl)amino)-4-phenyl-1H-pyrrole-2,5-dione]	> 3000 nM	> 3000 nM				
O=C1Cc2cc(NC3=C(c4ccccc4)C(=O)N(Cc4ccccc4)C3=O)ccc2N1 [Compound 37, 1-Benzyl-3-((2-oxoindolin-5-yl)amino)-4-phenyl-1H-pyrrole-2,5-dione]	139 nM	84 nM				

— article PMC11997999, “Uncovering α-Selectivity for Liver X Receptor Agonists for Lipotoxic Cancer Therapies” (Journal of Medicinal Chemistry, 2025)
